Results as given in patent US11628179B2, “Compounds for treating and preventing extracellular histone mediated pathologies” (priority 2017, dated 2023).
Several values for one entry are separate records, joined by “and”; a condition that tells them apart may be missing. Identical values can stand only once. Counter-ions that a name gives are not always drawn.

Key:
[1] = test system: whole blood coagulation; assay: Inhibition of histone-induced perturbation of whole blood coagulation (ROTEM); type: biochemical, human; conditions: mCBS 200 μg/mL
Excerpt: In comparison, the same volume of water had no effect (FIG. 19).

[2] = test system: mice; assay: In-vivo histone toxicity assay, circulating blood cells at 10 min; design: species or system mouse; conditions: 100 mg/kg i.p. 10 min prior to histones 50 mg/kg i.v.; bled 10 min later
Procedure: In-vivo histone toxicity assays. BALB/c female mice (5˜6 weeks of age), that are more prone to histone-induced anemia and easier to inject i.v. at this young age than C57BL/6 mice, were injected i.p. with test compounds at concentrations indicated 10 min prior to i.v. injection of histones (50 mg kg^−1) in phosphate buffered saline. Retro-orbital bleeds were performed at 10 min after histone injection and collected blood added to acid citrate dextrose (ACD), the 10 min blood sample being subjected to hematologic analyses for platelet and erythrocyte content using an ADVIA 2120i Hematology Analyzer. Spleens were also harvested at 10 min post-histone injection and splenic hemoglobin content quantified using a hemoglobin assay kit (Sigma-Aldrich). In the case of 4 h blood samples, male C57/BL/6 mice (6-8 weeks of age) were injected with test compounds and histones as above and plasma isolated and stored frozen for subsequent biochemical testing, with markers for liver (alanine aminotransferase, ALT), kidney (Creatinine, Crea) and general tissue (lactate dehydrogenase, LDH) damage being determined by the Department of Pathology, The Canberra Hospital.
Accordingly, the inventors in this example investigated the protective effect of mCBS on cells within the blood stream following intravenous injection of histones. […]

[3] = test system: Human platelets in whole blood; assay: Histone-induced platelet degranulation (ATP release); type: cell-based; conditions: compounds added prior to histones 400 μg/mL
[4] = test system: Beagle dogs
Procedure: This study was also conducted inter alia to determine the maximum tolerated dose (MTD) of the test item, mCBS, when administered by continuous (24 hours/day) intravenous infusion through a surgically-implanted catheter for 48 hours per dose level for up to 4 dose levels to Beagle dogs.
mCBS dose formulations were administered to Beagle dogs by continuous (24 hours/day) intravenous infusion for 48 hours per dose level for up to 4 dose levels, as described in the Table 15 below.
Parameters monitored during this phase of the study included mortality, clinical observations, body weights, and food consumption. Serial blood samples were collected from each animal to confirm mCBS plasma levels at the following time points: 24 and 48 hours post start of infusion of each dose level. Blood samples were also collected from each animal for clinical pathology evaluations (hematology, coagulation, and clinical chemistry) on Day 1, prior to administration of the new dose level on Days 3, 5, and 7, and on Day 9.

[5] = test system: whole blood coagulation
[6] = test system: Wistar rats; assay: Rat ischemia reperfusion tissue flap model; type: in vivo; conditions: 50 mg/kg i.p., 72 h
Excerpt: Rat ischemia reperfusion tissue flap model. The procedure employed is largely based on a previously described method (Askar, I., Oktay, M. F., Gurlek, A. & Bac, B. Protective effects of some antineoplastic agents on ischemia-reperfusion injury in epigastric island skin flaps. Microsurgery 26, 193-199, doi:10.1002/micr.20193 (2006)). Briefly, male Wistar rats were anaesthetised, locally depilated and a 3 cm by 6 cm fasciocutaneous flap was excised leaving the vascular pedicle intact. […] The clamp was removed […] post-application permitting returned blood flow to the flap. Test compounds (50 mg kg^−1) or saline were administered i.p. 5 min prior to clamp application and 5 min following its removal. The rats were monitored for a total experimental period of 72 h during which rats received additional compound or saline i.p. at 24 and 48 h post-op. The ‘Control No Clamp’ rats had the tissue flap excised and rubber placed underneath prior to re-suturing, however, the vessel was not clamped and they received saline at the same time points as the other rats. At the end of the experimental period the viability of the flaps was determined by the percentage of black necrotic or reddened areas vs pink viable areas. […]

[7] = test system: Beagle dogs; assay: Phase 2, continuous intravenous infusion at the MTD for 6 additional days; type: in vivo, dog
Procedure: Following confirmation of the MTD (2788 mg/kg/day), the dogs were then transferred to Phase 2 of the study, and the dosing administration was resumed at the MTD for 6 additional days of continuous infusion as indicated in Table 16 below.
Following completion of the additional 6 days of continuous infusion and collection of the last toxicokinetic blood samples, all animals were euthanized and subjected to a necropsy examination on Day 8. Histological examination was performed on the liver and kidneys of all animals.

[8] = test system: human RBCs; assay: Histone-induced RBC aggregation (flow cytometry autofluorescence, SEM); type: cell-based
[9] = Pharmacokinetics, intravenous bolus 100 mg/kg (plasma and urine); type: in vivo, rat
Procedure: A total of nine blood samples were collected from each rat at time points ranging from pre-dose to 192 hours post-dose. Urine samples were also collected over the first 48 hours. The resulting blood samples were processed to plasma. The urine and plasma samples were subsequently analysed for the concentration of mCBS (free-base) using LC-MS/MS based methods.

[10] = test system: human RBCs; assay: Histone-induced RBC fragility / lysis under shear; type: cell-based
[11] = HPLC analysis of mCBS in buffer formulations after 28 days; type: physicochemical; conditions: phosphate or citrate buffer, 25±2° C./60% RH and 40±2° C./75% RH
[12] = histones 400 μg/mL 55 min, then mCBS 5 min
[13] = IV bolus 100 mg/kg as sodium salt

CO[C@@H]1O[C@H](COS(=O)(=O)O)[C@@H](O[C@@H]2O[C@H](COS(=O)(=O)O)[C@@H](OS(=O)(=O)O)[C@H](OS(=O)(=O)O)[C@H]2OS(=O)(=O)O)[C@H](OS(=O)(=O)O)[C@H]1OS(=O)(=O)O [mCBS, β-O-methyl cellobioside sulfate]
inhibition of histone-induced prolongation of clotting time [1]: able to inhibit the anticoagulant effects of both 400 and 800 μg/mL of histones
histone-mediated reductions in circulating leukocytes, platelets, erythrocytes and haemoglobin [2]: significantly inhibited if not completely abolished
histone-induced platelet degranulation (ATP release) [3]: significantly reduced
steady-state plasma concentration (Css) at the highest dose level ([4]; 2788 mg/kg/day): higher than 300 μg/mL
maximum tolerated dose (MTD) ([4]; continuous (24 hours/day) IV infusion for 48 hours, free base corrected dose): 2788 mg/kg/day
dose-limiting toxicity (adverse clinical sign) ([4]; stepwise administration up to 2788 mg/kg/day): No dose-limiting toxicity
concentration that doubled the control clotting time [5]: 100 µg/mL
reduction in anticoagulant activity compared to LMWH, Enoxaparin [5]: 110 fold
viable area of the skin flap [6]: consistently and significantly increased the viable area of the skin flap
tolerability ([7]; 2788 mg/kg/day continuous IV infusion): well tolerated
t1/2 after end of infusion ([7]; 2788 mg/kg/day, both animals): approximately 1 hour
inhibition of histone-induced RBC aggregation ([8]; 0-200 μg/mL added prior to 400 μg/mL histones): inhibit histone-induced RBC aggregation in a dose dependent manner
reversal of histone-induced RBC aggregation [8, 12]: near complete inhibition
prevention of histone-induced RBC aggregation ([8]; mCBS 200 μg/mL, histones 400 μg/mL 60 min): prevented
percent of total dose excreted in urine, mean (±SEM) ([9]; 0-4 h post-dosing): 52.0 (±5.0) %
percent of total dose excreted in urine, mean (±SEM) ([9]; 0-24 h post-dosing): 65.0 (±7.0) %
percent of total dose excreted in urine, mean (±SEM) ([9]; 0-48 h post-dosing): 69.2 (±10.8) %
AUCinf [9, 13]: 135,000 ng·h/mL
AUClast [9, 13]: 135,000 ng·h/mL
distribution half-life [9, 13]: 0.65 h
mean residence time (MRT) [9, 13]: 1.43 h
terminal total body clearance (Cl) [9, 13]: 10.1 mL/min/kg
volume of distribution (Vz) [9, 13]: 49.0 L/kg
concentration at time zero (C0) ([9]; IV bolus 100 mg/kg as sodium salt (81.5 mg/kg free base), pooled mean plasma data, 6 rats): 308,000 ng/mL
apparent terminal elimination half-life (T½) ([9]; IV bolus 100 mg/kg as sodium salt, 100 mg/kg): 56.1 h and ~56 h
inhibition of histone-induced RBC lysis under shear ([10]; 0-200 μg/mL prior to 400 μg/mL histones 60 min, 100 mm/s, 40× repetitions): inhibit histone-induced lysis under shear in a dose-dependent manner
reversal of histone-induced RBC susceptibility to lysis [10, 12]: near complete inhibition
variation from nominal after 28 days [11]: ~2 % of nominal
